# Source: patent US20230137943A1, “PHOTOPROXIMITY PROFILING OF PROTEIN-PROTEIN INTERACTIONS IN CELLS” (The University of Chicago, priority 2019, published 2023)
# Columns and labels:
# [1] = target: T1, recombinant SNAP-Tag protein (Homo sapiens, UniProt P16455, A127T/A154D/C150Q/C62A/E30R/G131K/G132T/G153L/K125A/K32I/L33F/M134L/N157G/Q115S/Q116H/R128A/R135S/S151G/S152D/S159E); assay: In vitro photocleavage assay (in-gel fluorescence); type: biochemical; details: recombinant SNAP-Tag labeled with probe, 0-10 minutes irradiation
# T1 construct: His6 (N)
# T1 sequence (P16455 1-182 E30R/K32I/L33F/C62A/Q115S/Q116H/K125A/A127T/R128A/G131K/G132T/M134L/R135S/C150Q/S151G/S152D/G153L/A154D/N157G/S159E): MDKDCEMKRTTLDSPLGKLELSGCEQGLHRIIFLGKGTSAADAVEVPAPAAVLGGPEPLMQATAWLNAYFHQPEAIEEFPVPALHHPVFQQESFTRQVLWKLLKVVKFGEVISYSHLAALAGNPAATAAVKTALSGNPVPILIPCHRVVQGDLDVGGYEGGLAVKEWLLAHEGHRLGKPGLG
# Procedure: In vitro photocleavage assay: Recombinant purified His6-SNAP-Tag (20 μg) was incubated in 200 μL DPBS containing 5 μM PP1 for 1 hour at 37° C. Afterward, the reaction was divided into six 30 μL aliquots, placed on ice, and irradiated with 365 nm light using a SPECTROLINKER™ XL-1500a UV crosslinker (Spectroline, Spectronics, Corporation, Westbury, N.Y., United States of America). Samples were successively removed from irradiation after 0, 0.5, 1, 2.5, 5, 10 minutes of irradiation, diluted with loading buffer, and run on SDS-PAGE gel. Photocleavage was judged by in-gel fluorescence visualized using a ChemiDoc imaging system (Bio-Rad Laboratories, Hercules, Calif., United States of America) scanning for fluorescein.
# A first generation P3 chemical proteomic method was designed to facilitate several activities, including: 1) specific probe labeling of POIs in live cells; 2) spatial and temporal control of probe photoactivation and proximal labeling; 3) subsequent enrichment and identification of labeled proteins after cell lysis. […] The BnG targeting element is connected to dual photoreactive elements, a central substituted nitroveratryl carbamate, and a tethered diazirine, which upon irradiation with 365 nm light will simultaneously trigger cleavage and diffusion of the probe away from the SNAP-Tag-POI, as well as unmasking of a highly reactive carbene, respectively. […]
# [2] = target: T2, SNAP-FLAG/α-FLAG antibody complex (Homo sapiens, UniProt P16455, A127T/A154D/C150Q/C62A/E30R/G131K/G132T/G153L/K125A/K32I/L33F/M134L/N157G/Q115S/Q116H/R128A/R135S/S151G/S152D/S159E); assay: Proximity-labeling assay in cell lysate (anti-biotin / anti-mouse Western blot); type: biochemical; details: 500 nM probe
# T2 construct: host or cells: clarified lysate of HEK293T cells transiently or stably expressing SnapFlag
# T2 sequence (P16455 1-182 E30R/K32I/L33F/C62A/Q115S/Q116H/K125A/A127T/R128A/G131K/G132T/M134L/R135S/C150Q/S151G/S152D/G153L/A154D/N157G/S159E limits assumed): T1 sequence (P16455 1-182 E30R/K32I/L33F/C62A/Q115S/Q116H/K125A/A127T/R128A/G131K/G132T/M134L/R135S/C150Q/S151G/S152D/G153L/A154D/N157G/S159E)
# Procedure: Proximity-labeling assays: Clarified cell lysate from HEK293T cells either transiently (see FIG. 4B) or stably (see FIG. 4C) expressing SNAP-Tag (NEB #N9183S; New England Biolabs, Ipswich, Mass., United States of America) or SnapFlag was normalized to 1 mg/mL and 250 μL aliquots incubated in a microcentrifuge tube with either 500 nM of PP1. PP2, or DMSO for 1 hour at 37° C. Washed anti-FLAG M2 affinity gel, 40 μL of a 50% slurry, was transferred to each reaction in 750 μL of DPBS and the resultant suspension left to rotate overnight at 4° C. (Sigma #A2220; Sigma-Aldrich, St. Louis, Mo., United States of America). Samples were then spun down at 4000×g, supernatant aspirated, and the resin washed with 1M urea in DPBS (1 mL×8) followed by DPBS (1 mL). After being resuspended in 100 μL of DPBS, the samples were placed on ice where they were irradiated with 365 nm light for 10 minutes (SPECTROLINKER™ XL-1500a UV crosslinker, Spectronics Corporation, Westbury, N.Y., United States of America). Once irradiated, the beads were washed with 100 mM pH 3.5 glycine buffer (100 μL×2) and DPBS (1 mL). To elute the remaining SNAP-FLAG and resin-bound FLAG-antibody the beads were boiled for 5 minutes at 95° C. in 20 μL 4×-loading buffer containing 8% SDS and 400 mM DTT. After which, 60 μL of DPBS was added and the suspension boiled at 95° C. for an additional 5 minutes. The samples were then run on SDS-PAGE gel and transferred to nitrocellulose where they were stained with anti-mouse IR dye (Li-cor #926-68072; Li-cor Biosciences, Lincoln, Nebr., United States of America) and streptavidin IR dye (Li-cor #926-32230; Li-cor Biosciences, Lincoln, Nebr., United States of America). Bands corresponding to biotinylated proteins and the FLAG antibody were visualized using an Odyssey infrared imager (Li-cor Biosciences, Lincoln, Nebr., United States of America).
# To study if proximal protein interactors could be labeled in response to the dual photoactivation of PP1 in vitro, the interaction between SNAP-FLAG protein and an α-FLAG monoclonal antibody (mAb) was examined in cell lysate. In this assay, proximal biotinylation of both heavy and light chains of the antibody was expected, as well as self-labeling of the SNAP-FLAG protein, under conditions where the protein complex is formed and the PP1 probe is photoactivated. To test this hypothesis in the presence and absence of the protein-protein complex, SNAP protein that contained or lacked the FLAG epitope was treated with PP1 probe, followed by incubation with α-FLAG mAb, bead-based pulldown of the complexes, and subsequent photoactivation. […] The requirement for photoactivation of PP1, as well as a related probe PP2 (see FIG. 6) was tested by forming the SNAP-FLAG/α-FLAG complexes, and then comparing protein biotinylation with or without irradiation.
# To study if proximal protein interactors could be labeled in response to the dual photoactivation of AC1 (see FIG. 12A) in vitro, the interaction between SNAP-FLAG protein and an α-FLAG monoclonal antibody (mAb) was examined in cell lysate. Briefly, 250 μL aliquots of cell lysate (HEK293T, SNAP-Flag) was incubated in a microcentrifuge tube with either 500 nM of photoprobe, or DMSO for 1 hour at 37° C. Washed anti-FLAG M2 affinity gel, 40 μL of a 50% slurry, was transferred to each reaction in 750 μL of DPBS and the resultant suspension left to rotate overnight at 4° C. (Sigma #A2220; Sigma-Aldrich, St. Louis, Mo., United States of America). Samples were then spun down at 4000×g, supernatant aspirated, and the resin washed with 1M urea in DPBS (1 mL×8) followed by DPBS (1 mL). After being resuspended in 250 μL of DPBS, the +UV samples were placed on ice where they were irradiated with 365 nm light for 10 minutes (SPECTROLINKER™ XL-1500a UV crosslinker, Spectronics Corporation, Westbury, N.Y., United States of America). Once irradiated, the beads were washed with 1 M Urea (1 mL×2) and DPBS (1 mL×2). […]
compound,measurement,setting,value
COc1cc(C(C)OC(=O)NCCNC(=S)Nc2ccc3c(c2)C2(OC3=O)c3ccc(O)cc3Oc3cc(O)ccc32)c([N+](=O)[O-])cc1OCCCC(=O)NCc1ccc(COc2nc(N)nc3[nH]cnc23)cc1 (stereo not drawn) [PF-BnG],Fluorescence of labeled protein after irradiation at 365 nm (photocleavage),[1],complete loss of fluorescence within minutes
COc1cc(C(C)OC(=O)NCCCCC(NC(=O)CCC2(C)N=N2)C(=O)NCCNC(=O)CCCCC2SCC3NC(=O)NC32)c([N+](=O)[O-])cc1OCCCC(=O)NCCOCCOC(=O)NCc1ccc(COc2nc(N)nc3[nH]cnc23)cc1 (stereo not drawn) [PP2],Proximal labeling of heavy and light chains upon irradiation,"[2]; 365 nm light 10 minutes (FIG. 4C, FIG. 12B)",a discrete biotinylated band was formed on both heavy and light chains
same,Proximal labeling of heavy/light chain without irradiation,[2]; not exposed to 365 nm light (FIG. 4C),No proximal labeling
